Like-named read-outs stand apart in the source and are kept apart here.

Data set [1] relates to DENV-2 NGC. The data set can be described thus: Antiviral activity against DENV-2 NGC in A549 cells (viral RNA load by RT-qPCR). The class given is cell-based. Conditions: Dengue virus, DENV2; DENV-2 in A549 cells (Table 6).
Data set [2] concerns DENV-4 strain Dak HD 34 460. In words: Antiviral activity against DENV-4 in Vero-B cells (viral RNA load by RT-qPCR). The class given is cell-based, Dengue virus. For orientation: In qPCR the cycle at which signal appears reflects the starting amount.
For data set [3], the system named is DENV-2 NGC. In words: Antiviral activity against DENV-2 NGC in Vero-B cells (viral RNA load by RT-qPCR). Conditions: DENV-2 in Vero-B cells, inhibition of viral RNA replication by 50% (Table 3). It is filed as cell-based, Dengue virus.
The test system of data set [4] is DENV-1 Djibouti strain D1/H/IMTSSA/98/606. In words: Antiviral activity against DENV-1 in Vero-B cells (viral RNA load by RT-qPCR). It is filed as cell-based, Dengue virus.
The next data set is described as follows: in vitro. The settings on record: African green monkey, uninfected quiescent Vero-B cells.
The test system of data set [5] is DENV-3 strain H87 prototype. The data set can be described thus: Antiviral activity against DENV-3 in Vero-B cells (viral RNA load by RT-qPCR). The class given is cell-based, Dengue virus.
A short description of data set [6]: Cytotoxicity in A549 cells (MTS/PMS). It is filed as cell-based. The settings on record: human; A549 cells (Table 6). The protocol:
A similar protocol was used to assess cytotoxicity in A549 cells with the difference that cells were seeded at 2×10^4 cells/well.

For data set [7], the system named is uninfected quiescent Vero-B cells. In words: Cytotoxic assay in uninfected quiescent Vero-B cells (MTS/PMS). Conditions: 4 days (Table 3).

For orientation: EC50 means the concentration that produces a half-maximal response. A low value points to an effect from little substance. By CC50 is commonly meant the concentration that lowers cell viability or growth by half. For the compound `COc1cc(NC(C(=O)c2c[nH]c3ccccc23)c2ccccc2)cc(OCCO)c1` (centres unmarked) [CPD-255], the EC50 with DENV-2 NGC [1] is 29 nM; in data set [2] (Dengue virus, DENV4, Vero B), 3360 nM; with DENV-2 NGC [3] (Dengue virus, DENV2, Vero B), 40 nM; in data set [4] (Dengue virus, DENV1, Vero B), 750 nM; in data set [5] (Dengue virus, DENV3, Vero B) it was 1660 nM. In addition, the CC50 at 4 days came out at 63000 nM in the data set “in vitro” and 59000 nM in data set [6].
For the compound `COc1cc(NC(C(=O)c2c[nH]c3ccccc23)c2ccc(C)nc2)cc(OC)c1` (centres unmarked) [CPD-346], the EC50 is 8 nM with DENV-2 NGC [1]; 1270 nM in data set [2] (Dengue virus, DENV4, Vero B); 10 nM in the data set on DENV-2 NGC [3] (Dengue virus, DENV2, Vero B); 40 nM in data set [5] (Dengue virus, DENV3, Vero B). For the same compound, the cytotoxic concentration (CC50) at 4 days came out at 54000 nM in “in vitro” and 60000 nM in data set [6].
As for `COc1cccc(NC(C(=O)c2c[nH]c3ccccc23)c2cc3ccccn3n2)c1` (single isomer, unassigned) [CPD-324], the EC50 in data set [2] (Dengue virus, DENV4, Vero B) worked out at 5320 nM; in the data set on DENV-2 NGC [3], 10 nM; in data set [4] it was 270 nM; in data set [5] it was 190 nM. In data set [7], this compound yielded a CC50 of 30000 nM.
For the compound `COc1cc(CO)cc(NC(C(=O)c2c[nH]c3ccccc23)c2ccccc2)c1` (centres unmarked) [CPD-262], the EC50 in data set [2] (Dengue virus, DENV4, Vero B) worked out at 8490 nM; in the data set on DENV-2 NGC [3] (Dengue virus, DENV2, Vero B), 60 nM; in data set [4] (Dengue virus, DENV1, Vero B), 2330 nM; in data set [5] (Dengue virus, DENV3, Vero B), 6730 nM. For the same compound, in data set [7], the CC50 was 71000 nM.
The matching figures for `COc1cccc(NC(C(=O)c2c[nH]c3ccccc23)c2ccc(F)cc2)c1` (centres unmarked) [CPD-149]: 5720 nM, 30 nM, 2880 nM, 4010 nM and 14000 nM.
For the compound `COc1cc(NC(C(=O)c2cn(C)c3ccccc23)c2ccccc2)cc(OC)c1` (centres unmarked) [CPD-338], the EC50 came to 26 nM in the data set with DENV-2 NGC [1]; 1820 nM in data set [2] (Dengue virus, DENV4, Vero B); 10 nM with DENV-2 NGC [3] (Dengue virus, DENV2, Vero B); 350 nM in data set [4] (Dengue virus, DENV1, Vero B); 250 nM in data set [5] (Dengue virus, DENV3, Vero B). Also, the CC50 at 4 days (in the data set “in vitro”; in data set [6]) was greater than 124000 nM each time.
`COc1cccc(NC(C(=O)c2c[nH]c3cc(F)ccc23)c2ccccc2)c1` (centres unmarked) [CPD-123]: the EC50 in data set [2] (Dengue virus, DENV4, Vero B) is 2640 nM; with DENV-2 NGC [3] (Dengue virus, DENV2, Vero B), 50 nM; in data set [4] (Dengue virus, DENV1, Vero B), 1600 nM; in data set [5] (Dengue virus, DENV3, Vero B), 2560 nM. In data set [7], this compound registered a CC50 of 15000 nM.
The like results for `COc1cccc(NC(C(=O)c2c[nH]c3ccccc23)c2ccc(C#N)cc2)c1` (centres unmarked) [CPD-036] were, in that order, 5850 nM, 40 nM, 2430 nM, 3420 nM and 14000 nM.
Turning to `COc1cccc(NC(C(=O)c2c[nH]c3cc(OC)ccc23)c2ccccc2)c1` (centres unmarked) [CPD-077], the EC50 in data set [2] (Dengue virus, DENV4, Vero B) came out at 4270 nM; in the data set on DENV-2 NGC [3] (Dengue virus, DENV2, Vero B) it was 40 nM; in data set [4] (Dengue virus, DENV1, Vero B) it was 1420 nM; in data set [5] (Dengue virus, DENV3, Vero B), 2070 nM. In data set [7], this compound returned a CC50 of 13000 nM.
`COc1cccc(NC(C(=O)c2c[nH]c3ccccc23)c2ccc(C)nc2)c1` (centres unmarked) [CPD-226]: the EC50 in data set [2] (Dengue virus, DENV4, Vero B) was determined as 8640 nM; in the data set with DENV-2 NGC [3] (Dengue virus, DENV2, Vero B), 70 nM; in data set [4] (Dengue virus, DENV1, Vero B) it was 920 nM; in data set [5] (Dengue virus, DENV3, Vero B), 810 nM. This compound also had a CC50 in data set [7] of 73000 nM.
On to `COc1cc(CO)cc(NC(C(=O)c2c[nH]c3ccc(F)cc23)c2cccnc2)c1` (centres unmarked) [CPD-334], for which the EC50 amounted to 24 nM in the data set with DENV-2 NGC [1]; 16800 nM in data set [2] (Dengue virus, DENV4, Vero B); 70 nM with DENV-2 NGC [3] (Dengue virus, DENV2, Vero B); 1290 nM in data set [4] (Dengue virus, DENV1, Vero B); 810 nM in data set [5] (Dengue virus, DENV3, Vero B). Besides, the values for the CC50 at 4 days (in “in vitro”; in data set [6]) were 122000 nM and 85000 nM, respectively.
As to `COc1cc(NC(C(=O)c2c[nH]c3ccccc23)c2cc3ccccn3n2)cc(OC)c1` (centres unmarked) [CPD-293], the EC50 with DENV-2 NGC [1] came out at 3 nM; in data set [2] (Dengue virus, DENV4, Vero B), 1150 nM; with DENV-2 NGC [3] (Dengue virus, DENV2, Vero B), 1 nM; in data set [4] (Dengue virus, DENV1, Vero B), 60 nM; in data set [5] (Dengue virus, DENV3, Vero B), 40 nM. For the same compound, the 50% cytotoxic concentration (CC50) at 4 days in the data set “in vitro” is 65000 nM; in data set [6], greater than 117000 nM.
Consider `COc1cccc(NC(C(=O)c2c[nH]c3ccc(F)cc23)c2ccccc2)c1` (centres unmarked) [CPD-119], for which the half-maximal effective concentration (EC50) in data set [2] (Dengue virus, DENV4, Vero B) was found to be 2910 nM; in the data set on DENV-2 NGC [3] (Dengue virus, DENV2, Vero B), 30 nM; in data set [4] (Dengue virus, DENV1, Vero B), 690 nM; in data set [5] (Dengue virus, DENV3, Vero B), 1740 nM. The compound further gave a CC50 in data set [7] of 13000 nM.
The matching figures for `COc1cc(NC(C(=O)c2c[nH]c3ccccc23)c2ccc(F)cc2)cc(OC)c1` (centres unmarked) [CPD-235]: 3020 nM, 4 nM, 90 nM, 270 nM and 13000 nM.
Turning to `COc1cccc(NC(C(=O)c2c[nH]c3ccccc23)c2cc3ccccn3n2)c1` (single isomer, unassigned) [CPD-325], the EC50 was determined as 7160 nM in data set [2], 90 nM in the data set with DENV-2 NGC [3], 870 nM in data set [4] and 1840 nM in data set [5]. It took 68000 nM to reach half-maximal cytotoxicity in data set [7] (CC50).
Consider `COc1cccc(NC(C(=O)c2c[nH]c3cccc(F)c23)c2ccccc2)c1` (centres unmarked) [CPD-230], for which the EC50 in data set [2] (Dengue virus, DENV4, Vero B) was 2560 nM; in the data set on DENV-2 NGC [3] (Dengue virus, DENV2, Vero B), 120 nM; in data set [4] (Dengue virus, DENV1, Vero B) it was 350 nM; in data set [5] (Dengue virus, DENV3, Vero B) it was 3530 nM. Half-maximal cytotoxicity in data set [7] (CC50) was put at 21000 nM.
Consider `COc1cc(NC(C(=O)c2c[nH]c3ccccc23)c2ccccc2)cc(OC)c1` (single isomer, unassigned) [CPD-326], for which the EC50 in data set [2] (Dengue virus, DENV4, Vero B) was determined as 1890 nM; in the data set on DENV-2 NGC [3], 1 nM; in data set [4] it was 50 nM; in data set [5] it was 90 nM. Moreover, the CC50 in data set [7] turned out to be 13000 nM.
`COc1cc(CO)cc(NC(C(=O)c2c[nH]c3ccccc23)c2ccc(C)nc2)c1` (centres unmarked) [CPD-320]: the EC50 with DENV-2 NGC [1] turned out to be 6 nM; in data set [2] (Dengue virus, DENV4, Vero B), 9440 nM; with DENV-2 NGC [3] (Dengue virus, DENV2, Vero B), 70 nM; in data set [4] (Dengue virus, DENV1, Vero B) it was 960 nM; in data set [5] (Dengue virus, DENV3, Vero B) it was 1170 nM. Also, the CC50 at 4 days (in “in vitro”; in data set [6]) was greater than 124000 nM each time.
Turning to `COc1cccc(NC(C(=O)c2c[nH]c3cccc(Cl)c23)c2ccccc2)c1` (centres unmarked) [CPD-053], the EC50 in data set [2] (Dengue virus, DENV4, Vero B) came out at 7110 nM; in the data set on DENV-2 NGC [3] (Dengue virus, DENV2, Vero B), 20 nM; in data set [4] (Dengue virus, DENV1, Vero B), 1640 nM; in data set [5] (Dengue virus, DENV3, Vero B), 11200 nM. In addition, in data set [7], the CC50 came to 18000 nM.
Turning to `COc1cc(NC(C(=O)c2nn(C)c3ccccc23)c2ccc(F)cc2)cc(OC)c1` (centres unmarked) [CPD-340], the EC50 with DENV-2 NGC [1] was 27 nM; in data set [2] (Dengue virus, DENV4, Vero B), 6390 nM; in the data set with DENV-2 NGC [3] (Dengue virus, DENV2, Vero B), 20 nM; in data set [4] (Dengue virus, DENV1, Vero B) it was 180 nM; in data set [5] (Dengue virus, DENV3, Vero B), 240 nM. Also, the CC50 at 4 days (in the data set “in vitro”; in data set [6]) was greater than 119000 nM each time.
As for `COc1cc(NC(C(=O)c2c[nH]c3ccccc23)c2ccccc2)cc(OC)c1` (single isomer, unassigned) [CPD-327], the EC50 is 2250 nM in data set [2], 350 nM in the data set with DENV-2 NGC [3], 1420 nM in data set [4] and 4610 nM in data set [5]. In data set [7], half-maximal cytotoxicity (CC50) was put at 11000 nM.
Consider `CCOc1cc(NC(C(=O)c2c[nH]c3ccccc23)c2ccccc2)cc(OC)c1` (centres unmarked) [CPD-254], for which the EC50 in data set [2] (Dengue virus, DENV4, Vero B) is 1150 nM; with DENV-2 NGC [3] (Dengue virus, DENV2, Vero B) it was 20 nM; in data set [4] (Dengue virus, DENV1, Vero B), 670 nM; in data set [5] (Dengue virus, DENV3, Vero B) it was 800 nM. In addition, it took 13000 nM to reach half-maximal cytotoxicity in data set [7] (CC50).
With `COc1cc(NC(C(=O)c2cn(C)c3ccccc23)c2cccnc2)cc(OC)c1` (centres unmarked) [CPD-360], the EC50 in the data set with DENV-2 NGC [1] is 27 nM; in data set [2] (Dengue virus, DENV4, Vero B) it was 5780 nM; in the data set on DENV-2 NGC [3] (Dengue virus, DENV2, Vero B), 40 nM. The CC50 at 4 days (in “in vitro”; in data set [6]) was greater than 124000 nM throughout.

(Values after patent US12012411B2, “Viral replication inhibitors” (Katholieke Universiteit Leuven, priority 2011, dated 2024).)
